Earlier results, collected in US20200206380A1, “METHOD OF PRODUCING AND PROVIDING AN ANTIMICROBIAL AGENT THAT EXERTS AN EXTENDED RESIDUAL EFFECT” (Dabney Patents, L.L.C., priority 2018, published 2020).
Where two headings read alike, the source gives them in different places.

Test system: bacteria
Details: exposed for 20 seconds

For `OO` [hydrogen peroxide], the “% of bacteria killed” value (hydrogen peroxide used alone) is given as 30% and the “% of bacteria killed” value (in combination with radiation of 360 nm to 500 nm) is given as ≥ 96%.
